Test systems include M14 melanoma; SR leukemia; RXF 393 renal; CAKI-1 renal; HCT-15 colon; SF-295 CNS; K-562 leukemia; NCI-H522 lung; A498 renal; HCC-2998 colon.
What all share (assay): NCI anticancer screen, dose series, 48 h

Several values for one entry are separate records, joined by “and”; a condition that tells them apart may be missing. Equal entries are not always repeated.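 Assay format: 96-well plates, 48-hour exposure. At the GI50, growth is halved. Definition used: TGI = concentration required for complete inhibition of growth.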

On to `O=C1C=Cc2ccccc2/C1=C/c1[nH]c(=O)[nH]c1O`, for which the GI50 with M14 melanoma was 4420 nM; in the experiment on SR leukemia, 1670 nM; in the experiment on RXF 393 renal it was 2780 nM; with CAKI-1 renal it was 5700 nM; in the experiment with HCT-15 colon it was 7440 nM; in the experiment with SF-295 CNS it was 3100 nM. Moreover, the GI50 in the experiment on K-562 leukemia was 2850 nM; in the experiment with NCI-H522 lung it was 1300 nM; in the experiment on A498 renal it was 2870 nM; in the experiment on HCC-2998 colon, 7430 nM. Also, the TGI in the experiment with M14 melanoma is > 100000 nM; with SR leukemia, 7830 nM; in the experiment on RXF 393 renal it was 10200 nM; in the experiment on CAKI-1 renal, 42700 nM; with HCT-15 colon, > 100000 nM; in the experiment on SF-295 CNS, 8300 nM. Besides, the TGI in the experiment on K-562 leukemia is 34000 nM; in the experiment with NCI-H522 lung it was 3890 nM; in the experiment with A498 renal, 10600 nM; in the experiment with HCC-2998 colon, > 100000 nM.

For `O=C(NOCC1CC1)c1ccc(F)c(F)c1Nc1ccc(I)cc1Cl`, the GI50 was 54.6 nM in the experiment on M14 melanoma; 3040 nM in the experiment with SR leukemia; 2110 nM in the experiment on RXF 393 renal; 2750 nM in the experiment with CAKI-1 renal; 1570 nM with HCT-15 colon; 2630 nM in the experiment with SF-295 CNS. In addition, the GI50 with K-562 leukemia is 2550 nM; with NCI-H522 lung, 1940 nM; with A498 renal it was 63.9 nM; in the experiment on HCC-2998 colon it was 178 nM. Further, the TGI in the experiment with M14 melanoma is 505 nM; in the experiment on SR leukemia, 12100 nM; in the experiment on RXF 393 renal it was 8950 nM; in the experiment with CAKI-1 renal, > 100000 nM; in the experiment on HCT-15 colon, > 32700 nM; in the experiment on SF-295 CNS it was 44600 nM. Besides, the TGI with K-562 leukemia is > 35300 nM; with NCI-H522 lung it was 8510 nM; with A498 renal, 492 nM; in the experiment with HCC-2998 colon, 2690 nM.

With `COC(=O)/C(=C\c1c(C)[nH]c2ccccc12)S(=O)(=O)c1ccccc1`, the GI50 in the experiment on M14 melanoma was 4400 nM; in the experiment on SR leukemia, 1050 nM; with RXF 393 renal, 3630 nM; with CAKI-1 renal, 3330 nM; in the experiment with HCT-15 colon, 3070 nM; with SF-295 CNS it was 3070 nM. In addition, the GI50 with K-562 leukemia was > 100000 nM; in the experiment on NCI-H522 lung, 3190 nM; in the experiment on A498 renal, 5450 nM; in the experiment on HCC-2998 colon it was 4890 nM. Moreover, the TGI in the experiment on M14 melanoma was 20000 nM; in the experiment with SR leukemia, > 100000 nM; with RXF 393 renal it was 31900 nM; in the experiment with CAKI-1 renal, 16700 nM; in the experiment on HCT-15 colon, 12800 nM; with SF-295 CNS, 15700 nM. Moreover, the TGI is > 100000 nM in the experiment with K-562 leukemia, 14400 nM with NCI-H522 lung, 20900 nM in the experiment on A498 renal and 17400 nM in the experiment on HCC-2998 colon.

On to `O=C(Nc1ncc(Cc2ccccc2Cl)s1)c1ccc2c(c1)OCCO2`, for which the GI50 is 246 nM in the experiment with M14 melanoma; 206 nM in the experiment with SR leukemia; 255 nM in the experiment with RXF 393 renal; 306 nM in the experiment on CAKI-1 renal; 119 nM in the experiment with HCT-15 colon; 346 nM in the experiment with SF-295 CNS. The GI50 in the experiment with K-562 leukemia was 183 nM; in the experiment with NCI-H522 lung, 261 nM; in the experiment with A498 renal, 151 nM; with HCC-2998 colon, 468 nM. For the same molecule, the TGI with M14 melanoma was 14500 nM; in the experiment on SR leukemia it was > 100000 nM; with RXF 393 renal, 1190 nM; in the experiment on CAKI-1 renal, > 47900 nM; in the experiment with HCT-15 colon, > 100000 nM; in the experiment with SF-295 CNS, 5040 nM. Further, the TGI with K-562 leukemia is > 100000 nM; with A498 renal, 693 nM; in the experiment on HCC-2998 colon, > 55500 nM.

As for `COc1c(O)ccc2c1CN1CCc3cc4c(cc3C1C2)OCO4` (centres undefined), the TGI in the experiment on M14 melanoma is > 100000 nM; with SR leukemia, > 100000 nM; in the experiment with RXF 393 renal it was 50600 nM; in the experiment on CAKI-1 renal, > 100000 nM; with HCT-15 colon, > 100000 nM; in the experiment with SF-295 CNS, > 96600 nM. The TGI with K-562 leukemia was > 100000 nM; in the experiment with NCI-H522 lung, 36100 nM; in the experiment on A498 renal it was > 78900 nM; with HCC-2998 colon, > 100000 nM.

Consider `CNC(=O)c1cccc(-c2ccc3c(N4CCOC[C@@H]4C)nc(N4CCOC[C@@H]4C)nc3n2)c1`, for which the GI50 in the experiment with M14 melanoma was 47 nM and 177 nM and 133 nM; with SR leukemia, 249 nM and 133 nM and 104 nM; in the experiment on RXF 393 renal, 48.8 nM and 60 nM and 28 nM; with CAKI-1 renal, 69.3 nM and 148 nM and 144 nM; in the experiment on HCT-15 colon it was 90.9 nM and 267 nM and 160 nM; with SF-295 CNS it was 49.4 nM and 123 nM and 33.6 nM. Moreover, the GI50 in the experiment on K-562 leukemia is 499 nM and 372 nM and 445 nM; in the experiment with NCI-H522 lung, 50.5 nM and 99.1 nM and 47.9 nM; in the experiment with A498 renal, 18.3 nM and 25.8 nM and < 14.1 nM; in the experiment with HCC-2998 colon, 221 nM and 430 nM and 182 nM. In addition, the TGI in the experiment with M14 melanoma is 44500 nM and > 6820 nM and 14900 nM; in the experiment with SR leukemia it was > 100000 nM; in the experiment with RXF 393 renal, 470 nM and 370 nM and 337 nM; in the experiment on CAKI-1 renal, 1830 nM and > 3360 nM; in the experiment on HCT-15 colon it was > 100000 nM; in the experiment on SF-295 CNS, 392 nM and 795 nM and 220 nM. Moreover, the TGI was > 100000 nM in the experiment on K-562 leukemia; > 100000 nM in the experiment on NCI-H522 lung; 82.7 nM and 142 nM and 80.1 nM with A498 renal; > 100000 nM and > 10000 nM and 36600 nM with HCC-2998 colon.

Take `CC(NNC(=S)N1CCCCCC1)c1ccc2ccccc2n1` (centres undefined): the GI50 with M14 melanoma is 1850 nM; in the experiment on SR leukemia, 759 nM; in the experiment on RXF 393 renal, 4700 nM; in the experiment with CAKI-1 renal, 456 nM; in the experiment with HCT-15 colon, 1060 nM; in the experiment with SF-295 CNS it was 843 nM. For the same molecule, the GI50 with K-562 leukemia was 2140 nM; with NCI-H522 lung, 2690 nM; in the experiment with A498 renal, 4610 nM; in the experiment with HCC-2998 colon, 3350 nM. In addition, the TGI is 11700 nM with M14 melanoma; > 48900 nM in the experiment on SR leukemia; 21200 nM with RXF 393 renal; 10800 nM in the experiment on CAKI-1 renal; 51600 nM with HCT-15 colon; 13200 nM with SF-295 CNS. Further, the TGI is > 100000 nM in the experiment on K-562 leukemia, 21600 nM with NCI-H522 lung, 22100 nM in the experiment with A498 renal and 22600 nM in the experiment with HCC-2998 colon.

Regarding `CCOC(CN=c1nc(N(C)C)ss1)OCC`, the TGI is 35500 nM in the experiment with M14 melanoma; 12200 nM in the experiment on SR leukemia; 37300 nM in the experiment on RXF 393 renal; 41300 nM in the experiment with CAKI-1 renal; 42800 nM in the experiment on HCT-15 colon; 43800 nM in the experiment with SF-295 CNS. For the same molecule, the TGI was 11800 nM in the experiment with K-562 leukemia, 1450 nM with NCI-H522 lung, > 100000 nM with A498 renal and > 100000 nM in the experiment on HCC-2998 colon.

Values taken from PubChem BioAssay (NCI).
